No end group written: not given here. CM‑Chitin = carboxymethyl chitin
Key:
fibronectin = assay: Cell adhesion-inhibitory test against fibronectin (competitive assay, number of adhered cells); format: cell-based, human; conditions: endothelium cells of blood vessel, 37° C., one hour, 0 mg/ml control 160
From the text: (§1) A method for determining the activity of the CM-chitin derivatives of the present invention for inhibiting adhesion of cells to fibronectin or vitronectin will be described below. The competitive assays used herein have widely been employed tin the field of biochemistry and are detailed in, for instance, "Method in Enzymology", 1981, 82, pp. 803-831; and J. P. KOKAI Nos. Hei 1-309682 and Hei 2-174797.
(§2) Commercially available fibroneotin (derived from human; purchased from Seikaqaku Kogyo K. K.) and vitronectin (derived from human; purchased from Funakoshi Co., Ltd.) each was diluted to 1.0 μ1/ml and 2.0 μ1/ml with PBS (NaH2 PO4 0.005 M+NaCl 0.07 M), 0.5 ml of the resulting diluted solution was dispensed into a plastic plate having 24 wells and incubated at 37° C. overnight to perform coating of the plate. Then bovine serum albumin (BSA 1%) was added followed by incubation at 37° C. for one hour for inhibiting the occurrence of nonspecific adsorption, then washing with PBS in the usual manner and sufficient drainage to give an adsorption plate.
(§3) A CM-chitin derivative obtained through lyophilization was diluted with Dulbecco's Modified Eagles Medium (hereunder referred to as "DMEM") to give solutions of the CM-chitin derivative having concentrations of 0, 0.25, 0.5, 1.0 and 1.5 mg/ml respectively. Each of the solutions (0.25 ml) was dispensed to the plate prepared above, 0.25 ml of a suspension of endothelium cells of blood vessel (4×10^6 cells/ml) was added to the plate and incubated at 37° C. for one hour to thus cause cohesion of the cells. The plate was washed three times with DMEM medium to remove non-adhesive cells, then the adhered cells were peeled off with a 0.025% EDTA trypsin solution and stained with a 2% Trypan Blue solution to determine the number of the adhered cells.

vitronectin = assay: Cell adhesion-inhibitory test against vitronectin (competitive assay, number of adhered cells); format: cell-based, human; conditions: endothelium cells of blood vessel, 37° C., one hour, 0 control 249
From the text: as §1, §2
as §3, with “A CM-chitin derivative obtained through lyophilization was diluted with Dulbecco's Modified Eagles Medium (hereunder referred to as "DMEM") to give solutions of the CM-chitin derivative having concentrations of 0, 0.25, 0.5, 1.0 and 1.5 mg/ml respectively.” left out

[1] = system: human plasma rich in platelet; assay: Platelet coagulation-inhibitory activity in vitro, transmittance by aggregometer; format: cell-based; conditions: 37° C., 3 minutes preincubation; for Platelet Coagulation-Inhibitory Action IC50, ADP Stimulation: ADP stimulation (50 μM ADP solution); for Platelet Coagulation-Inhibitory Action IC50, Collagen Stimulation: collagen stimulation (200 μg/ml collagen solution)
Protocol: The platelet coagulation-inhibitory effect of the CM-chitin derivative of the present invention was assayed, in vitro, using human plasma rich in platelet. The experimental method will be described below.
To fresh human blood, there was added 1/9 volume of a 3.8% sodium citrate solution, the resulting mixture was centrifuged (1000 rpm; for 10 minutes) and the upper layer was separated as a plasma rich in platelet. A lyophilized CM-chitin derivative was dissolved in physiological saline to give a plurality of solutions having various concentrations ranging from 0 to 1.5 mg/ml. Each of the solutions (25 μ1) was added to 200 µl of the plasma, incubated at 37° C. for 3 minutes, then a 50 μM of ADP (adenosine diphosphate) solution or a 200 μg/ml collagen solution was added to determine the extent of coagulation in terms of transmittance determined by an aggregometer.
Rate of Coagulation Inhibition=(1-T/T .)×100%
T . : transmittance observed when a salt of CM-chitin derivative was not added.
T : transmittance observed when a salt of CM-chitin derivative was added.

[2] = concentration 10 mg/ml (so in the source)
[3] = concentration 50 mg/ml (so in the source)
[4] = concentration 100 mg/ml (so in the source)
[5] = concentration 300 mg/ml (so in the source)

Row | Compound | Platelet Coagulation-Inhibitory Action IC50, ADP Stimulation [1] | Platelet Coagulation-Inhibitory Action IC50, Collagen Stimulation [1] | Cell Adhesion-Inhibitory effect Against Fibronectin (number of adhered cells) (fibronectin; concentration 0.5 mg/ml) | Cell Adhesion-Inhibitory effect Against Fibronectin (number of adhered cells) (fibronectin; concentration 1.0 mg/ml) | Cell Adhesion-Inhibitory effect Against Fibronectin (number of adhered cells) (fibronectin; concentration 1.5 mg/ml) | Cell Adhesion-Inhibitory effect Against Fibronectin (number of adhered cells) (fibronectin; concentration .25 mg/ml) | Cell Adhesion-Inhibitory effect Against Vitronectin (number of adhered cells) (vitronectin; [2]) | Cell Adhesion-Inhibitory effect Against Vitronectin (number of adhered cells) (vitronectin; [3]) | Cell Adhesion-Inhibitory effect Against Vitronectin (number of adhered cells) (vitronectin; [4]) | Cell Adhesion-Inhibitory effect Against Vitronectin (number of adhered cells) (vitronectin; [5])
1 | N=C(N)NCCC[C@H](N)C(=O)NCC(=O)N[C@@H](CC(=O)O)C(=O)O [ArgGlyAsp, H--(Arg--Gly--Asp)--OH, reference compound] | 27 µg/mL | 22 µg/mL | 162 cell/well | 141 cell/well | 83 cell/well | 157 cell/well | 171 cell/well | 132 cell/well | 104 cell/well | 73 cell/well
2 | CM-Chitin Gly-Arg-Gly-Asp-Ser (GRGDS; also: conjugated to CM-chitin) [CM--chitin derivative-7] | 30 µg/mL | 16 µg/mL | 98 cell/well | 84 cell/well | 71 cell/well | 119 cell/well | 143 cell/well | 85 cell/well | 79 cell/well | 55 cell/well
3 | CM-Chitin-Arg-Gly-Asp-Ser ({CM‑Chitin}-RGDS) [CM--chitin derivative-1, rate of introduction of Arg-Gly-Asp-Ser fragments about 10%] | 15 µg/mL | 10 µg/mL | 106 cell/well | 79 cell/well | 69 cell/well | 131 cell/well | 148 cell/well | 89 cell/well | 72 cell/well | 41 cell/well
4 | Itaconyl Derivative of CM-Chitin Arg-Gly-Asp-Ser (RGDS; also: conjugated to itaconyl CM-chitin) [CM--chitin derivative-5] | 17 µg/mL | 12 µg/mL | 105 cell/well | 86 cell/well | 72 cell/well | 136 cell/well | 129 cell/well | 91 cell/well | 80 cell/well | 48 cell/well
5 | Maleyl Derivative of CM-Chitin Arg-Gly-Asp-Ser (RGDS; also: conjugated to maleyl CM-chitin) [CM--chitin derivative-3] | 21 µg/mL | 7 µg/mL | 100 cell/well | 77 cell/well | 55 cell/well | 123 cell/well | 141 cell/well | 87 cell/well | 69 cell/well | 49 cell/well
6 | Phthaloyl derivative of CM-Chitin Arg-Gly-Asp-Ser (RGDS; also: conjugated to phthaloyl CM-chitin) [CM--chitin derivative-4] | 29 µg/mL | 15 µg/mL | 121 cell/well | 80 cell/well | 67 cell/well | 141 cell/well | 145 cell/well | 90 cell/well | 67 cell/well | 45 cell/well

More lines, main results first:

Row | Platelet Coagulation-Inhibitory Action IC50, ADP Stimulation [1] | Platelet Coagulation-Inhibitory Action IC50, Collagen Stimulation [1] | Compound | Cell Adhesion-Inhibitory effect Against Fibronectin (number of adhered cells) (fibronectin; concentration 0.5 mg/ml) | Cell Adhesion-Inhibitory effect Against Fibronectin (number of adhered cells) (fibronectin; concentration 1.0 mg/ml) | Cell Adhesion-Inhibitory effect Against Fibronectin (number of adhered cells) (fibronectin; concentration 1.5 mg/ml) | Cell Adhesion-Inhibitory effect Against Fibronectin (number of adhered cells) (fibronectin; concentration .25 mg/ml) | Cell Adhesion-Inhibitory effect Against Vitronectin (number of adhered cells) (vitronectin; [2]) | Cell Adhesion-Inhibitory effect Against Vitronectin (number of adhered cells) (vitronectin; [3]) | Cell Adhesion-Inhibitory effect Against Vitronectin (number of adhered cells) (vitronectin; [4]) | Cell Adhesion-Inhibitory effect Against Vitronectin (number of adhered cells) (vitronectin; [5])
7 | 21 µg/mL | 10 µg/mL | CM-Chitin Arg-Gly-Asp-Ser (RGDS; also: conjugated to CM-chitin) [CM--chitin derivative-18] | 101 cell/well | 75 cell/well | 52 cell/well | 133 cell/well | 125 cell/well | 83 cell/well | 56 cell/well | 44 cell/well
8 | 19 µg/mL | 5 µg/mL | CM-Chitin-Gly-Arg-Gly-Asp-Ser-Pro [CM--chitin derivative-19] | 106 cell/well | 79 cell/well | 56 cell/well | 127 cell/well | 130 cell/well | 92 cell/well | 63 cell/well | 39 cell/well
9 | 14 µg/mL | 5 µg/mL | CM-chitin-Arg-Gly-Asp-Ser-Gly-NH2 ({CM‑Chitin}-RGDSG-NH2; also: conjugated to CM-chitin) [CM--chitin derivative-17] | 84 cell/well | 61 cell/well | 35 cell/well | 99 cell/well | 114 cell/well | 76 cell/well | 48 cell/well | 33 cell/well
